We go through 8 compounds from PubChem BioAssay (NCI).

Holding throughout (experiment): NCI tumour cell line growth inhibition, 48 h
The subject of assay [1] is ACHN renal.
Assay [2] has as its system CAKI-1 renal.
Assay [3] has as its system EKVX NSCLC.
Assay [4] deals with MOLT-4 leukemia.
The subject of assay [5] is OVCAR-3 ovarian.
The subject of assay [6] is OVCAR-5 ovarian.
The test system of assay [7] is RXF 393 renal.
In assay [8] the test system is SR leukemia.
In assay [9] the test system is SW-620 colon.
Assay [10] deals with MALME-3M melanoma.

SMILES strings stand for the structures.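 Grown in 96-well plates, cells were treated for 48 hours with each compound at five concentrations. Insufficient inhibition: endpoint recorded as highest concentration tested. At the GI50, growth is halved. At the TGI there is no net growth.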

Take `CC1SC(c2ccc(F)cc2)N(NC(=O)C(O)c2ccccc2)C1=O` (stereo not given): the GI50 in [1], in assay [2], in assay [3], in [4], in assay [5] and in assay [6] was over 100 µM each time. The GI50 in [7], in [8] and in [9] was over 100 µM in each case. In addition, the TGI in assay [1], in assay [2], in assay [3], in assay [4], in [5] and in assay [6] was over 100 µM each time. Besides, the TGI in [7], in [8] and in assay [9] was over 100 µM in each case.
Turning to `Nc1ccccc1SC(CC(=O)c1ccccc1)c1cccc([N+](=O)[O-])c1` (stereo not given), the GI50 in assay [1] is 14.5 µM; in [2] it was 16.4 µM; in [10], 16.9 µM; in assay [4] it was 17.6 µM; in [5] it was 12.8 µM; in assay [6], 17.4 µM. Further, the GI50 in assay [7] was 15 µM; in [8], 2.55 µM; in assay [9] it was 3.03 µM. Further, the TGI in assay [1] came to 27.9 µM; in assay [2], 30.4 µM; in [10] it was 31.3 µM; in [4] it was 50.5 µM; in assay [5], 25.8 µM; in [6], 32.2 µM. Further, the TGI in assay [7] worked out at 28.6 µM; in assay [8] it was 6.46 µM; in [9], 12.2 µM.
On to `COc1ccc2nc(NC(=O)CSc3nnc4n3S(=O)(=O)c3ccccc3N4c3ccccc3)sc2c1`, for which the GI50 in assay [1], in assay [2], in assay [3], in [10], in assay [4] and in assay [5] was over 100 µM in each case. For the same compound, the GI50 is over 100 µM in assay [6], 47.4 µM in assay [8] and over 100 µM in [9]. Besides, the TGI in assay [1], in assay [2], in [3], in [10], in assay [4] and in [5] was over 100 µM each time. Besides, the TGI in assay [6], in [8] and in assay [9] was over 100 µM in each case.
With `COc1ccc(C2[C@@H](c3ccccc3)C(=O)N2c2cc(OC)c(OC)c(OC)c2)cc1F` (stereo not given in full), the GI50 is 0.044 µM in assay [1]; 0.0332 µM in [2]; 0.0776 µM in [3]; over 100 µM in [10]; 0.0381 µM in [4]; 0.028 µM in [5]. The values for the GI50 in assay [6], in [8] and in assay [9] were 0.0517 µM, 0.0373 µM and 0.0419 µM, respectively. The TGI was over 100 µM in assay [1]; over 100 µM in [2]; over 100 µM in assay [3]; over 100 µM in [10]; over 100 µM in assay [4]; 0.077 µM in assay [5]. The TGI in [6], in assay [8] and in assay [9] was over 100 µM in each case.
With `CCN(Cc1ccc(F)cc1)c1cc(Cl)c(CO)c(Cl)c1`, the GI50 in assay [1] is 14.9 µM; in assay [2], 13.5 µM; in [10] it was 17.8 µM; in assay [4] it was 16.6 µM; in assay [5], 11.7 µM; in assay [6], 4.22 µM. The figures for the GI50 in [7], in assay [8] and in [9] were 8.71 µM, 15.4 µM and 13.7 µM, respectively. The TGI in assay [1] amounted to 29.2 µM; in [2], 32.1 µM; in [10] it was 36.1 µM; in assay [4], 44 µM; in assay [5], 24.3 µM; in assay [6] it was 17.7 µM. For the same compound, the TGI in assay [7] came out at 21.6 µM; in assay [8], 39.6 µM; in [9], 30.4 µM.
For `COc1cc(C2CC(C)(O)Oc3cc4c(cc32)OCO4)cc(OC)c1OC` (stereo not given), the TGI was over 100 µM in [1]; over 100 µM in [2]; over 100 µM in [3]; over 100 µM in assay [4]; 0.679 µM in assay [5]; over 100 µM in assay [6]. Besides, the figures for the TGI in [7], in [8] and in assay [9] were 0.403 µM, over 100 µM and over 100 µM, respectively.
Turning to `COc1cccc(C(=O)NC(c2ccc(C)cc2)c2cc(Cl)c3cccnc3c2O)c1` (stereo not given), the GI50 in [1] was 0.445 µM; in assay [2], 0.465 µM; in [10] it was 1.42 µM; in assay [4], 0.622 µM; in assay [5] it was 0.346 µM; in [6], 1.13 µM. Further, the GI50 was 0.736 µM in assay [7], 0.538 µM in [8] and 0.425 µM in [9]. In addition, the TGI in assay [1] was 10.4 µM; in assay [2] it was 15.8 µM; in [10], 15.6 µM; in [4], 8.05 µM; in [5] it was 18.6 µM; in assay [6] it was 24.4 µM. In addition, the TGI was 3.44 µM in [7], 5.66 µM in assay [8] and 23.4 µM in assay [9].
Take `COc1ccc(CCN=C2NC(=O)/C(=C/c3ccc4ncccc4c3)S2)cc1`: the GI50 was over 25 µM in assay [1]; over 21.2 µM in assay [2]; over 25 µM in [10]; over 25 µM in assay [4]; over 25 µM in assay [5]; over 25 µM in [6]. Moreover, the GI50 was over 25 µM in [7], 12.6 µM in assay [8] and over 25 µM in assay [9]. Moreover, the TGI in assay [1], in assay [2], in [10], in [4], in [5] and in assay [6] was over 25 µM each time. The TGI in assay [7], in [8] and in assay [9] was over 25 µM each time.
